Key:
FLT3 Autoinh. = molecular target: T1, FLT3 Autoinh. (Homo sapiens, UniProt P36888); experiment: DiscoverX KINOMEscan competition binding, FLT3 Autoinh.
T1 construct: host or cells: E. coli BL21-derived host (T7 phage) or HEK-293
T1 sequence (P36888 564-993 limits assumed): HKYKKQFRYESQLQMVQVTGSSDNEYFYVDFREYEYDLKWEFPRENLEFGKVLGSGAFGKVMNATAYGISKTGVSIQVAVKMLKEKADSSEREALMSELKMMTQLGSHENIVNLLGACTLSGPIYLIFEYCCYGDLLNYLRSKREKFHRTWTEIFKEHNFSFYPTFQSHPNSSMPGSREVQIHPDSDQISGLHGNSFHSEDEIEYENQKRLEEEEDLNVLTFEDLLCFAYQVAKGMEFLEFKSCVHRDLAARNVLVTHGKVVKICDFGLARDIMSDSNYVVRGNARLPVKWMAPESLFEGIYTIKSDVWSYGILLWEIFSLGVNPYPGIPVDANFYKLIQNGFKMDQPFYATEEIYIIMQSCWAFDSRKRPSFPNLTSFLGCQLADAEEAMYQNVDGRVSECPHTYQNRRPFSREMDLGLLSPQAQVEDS
Text: (§1) Kinase binding data were obtained for various exemplary compounds prepared according to Examples 1-24 using the DiscoverX KINOMVIEscan® active site-directed competition binding site-directed assay protocol described below. […] As a result, the data report thermodynamic interaction affinities (Kd values), rather than IC50 values that are dependent on ATP concentrations. The assay uses a DNA-tagged version of the protein kinase, and an immobilized ligand bound to a solid support. Compounds that directly or indirectly prevent kinase binding to the immobilized ligand reduce the amount of kinase captured on the solid support, which is detected using an ultra-sensitive qPCR method. Affinity constants reported from the assay have been reported to be independent of the immobilized ligand used that is coupled to the solid support (See supplemental information in Fabian, M. A. et. al., (2005) Nat. Biotechnol. 23, 329-336; Wodicka, L. M. et. al., (2010) Chem. Biol. 17, 1241-1249.)
(§2) Kinase-tagged T7 phage strains were prepared in an E. coli host derived from the BL21 strain. E. coli were grown to log-phase and infected with T7 phage and incubated with shaking at 32° C. until lysis. The lysates were centrifuged and filtered to remove cell debris. The remaining kinases were produced in HEK-293 cells and subsequently tagged with DNA for qPCR detection. Streptavidin-coated magnetic beads were treated with biotinylated small molecule ligands for 30 minutes at room temperature to generate affinity resins for kinase assays. The liganded beads were blocked with excess biotin and washed with blocking buffer (SeaBlock (Pierce), 1% BSA, 0.05% Tween 20, 1 mM DTT) to remove unbound ligand and to reduce non-specific binding. Binding reactions were assembled by combining kinases, liganded affinity beads, and test compounds in 1× binding buffer (20% SeaBlock, 0.17×PBS, 0.05% Tween 20, 6 mM DTT). Test compounds were prepared as 111× stocks in 100% DMSO. Kds were determined using an 11-point 3-fold compound dilution series with three DMSO control points. All compounds for Kd measurements are distributed by acoustic transfer (non-contact dispensing) in 100% DMSO. The compounds were then diluted directly into the assays such that the final concentration of DMSO was 0.9%. All reactions were performed in polypropylene 384-well plates. Each was a final volume of 0.02 mL. The assay plates were incubated at room temperature with shaking for 1 hour and the affinity beads were washed with wash buffer (1×PBS, 0.05% Tween 20). The beads were then re-suspended in elution buffer (1×PBS, 0.05% Tween 20, 0.5 μM nonbiotinylated affinity ligand) and incubated at room temperature with shaking for 30 minutes. The kinase concentration in the eluates was measured by qPCR.
(§3) Binding constants (Kds) were calculated with a standard dose-response curve using the Hill equation. The Hill Slope was set to −1. Curves were fitted using a non-linear least square fit with the Levenberg-Marquardt algorithm.

FLT3 D835Y = molecular target: T2, FLT3 D835Y (Homo sapiens, UniProt P36888, D835Y); experiment: DiscoverX KINOMEscan competition binding, FLT3 D835Y
T2 construct: host or cells: E. coli BL21-derived host (T7 phage) or HEK-293
T2 sequence (P36888 27-993 D835Y): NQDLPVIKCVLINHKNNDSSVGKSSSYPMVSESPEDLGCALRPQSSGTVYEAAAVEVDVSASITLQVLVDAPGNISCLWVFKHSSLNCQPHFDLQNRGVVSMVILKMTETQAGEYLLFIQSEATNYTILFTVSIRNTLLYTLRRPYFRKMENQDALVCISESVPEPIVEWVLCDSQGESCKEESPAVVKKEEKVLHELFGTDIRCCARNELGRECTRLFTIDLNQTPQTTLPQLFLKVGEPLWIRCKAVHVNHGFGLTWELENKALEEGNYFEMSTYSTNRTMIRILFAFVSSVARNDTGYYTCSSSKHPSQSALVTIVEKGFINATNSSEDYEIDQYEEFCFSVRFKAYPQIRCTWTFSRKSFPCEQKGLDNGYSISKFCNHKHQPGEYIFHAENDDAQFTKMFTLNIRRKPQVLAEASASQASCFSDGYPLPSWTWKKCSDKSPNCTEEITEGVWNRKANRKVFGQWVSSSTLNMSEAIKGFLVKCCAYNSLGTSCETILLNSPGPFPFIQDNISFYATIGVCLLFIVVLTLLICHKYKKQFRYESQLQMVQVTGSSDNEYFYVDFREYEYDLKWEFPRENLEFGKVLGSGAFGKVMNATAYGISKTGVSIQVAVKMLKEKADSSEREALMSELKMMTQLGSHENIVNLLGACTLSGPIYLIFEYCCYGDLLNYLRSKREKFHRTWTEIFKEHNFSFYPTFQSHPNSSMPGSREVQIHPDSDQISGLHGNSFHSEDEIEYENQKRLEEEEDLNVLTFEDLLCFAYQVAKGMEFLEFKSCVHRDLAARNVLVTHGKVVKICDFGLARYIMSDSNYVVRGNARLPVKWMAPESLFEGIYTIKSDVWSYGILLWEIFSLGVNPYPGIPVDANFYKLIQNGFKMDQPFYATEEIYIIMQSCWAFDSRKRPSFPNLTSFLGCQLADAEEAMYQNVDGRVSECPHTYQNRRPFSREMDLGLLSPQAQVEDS
Text: as §1, §2, §3

Row | Compound | Kd (FLT3 Autoinh.) | Kd (FLT3 D835Y)
1 | CC1(c2cn3c(-c4cccc(N[C@H]5CNCC56CC6)n4)cnc3cn2)CC1 [Compound 5, (R)-N-(6-(6-(1-methylcyclopropyl)imidazo[1,2-a]pyrazin-3-yl)pyridin-2-yl)-5-azaspiro[2.4]heptan-7-amine] | 0.88 nM | 0.036 nM
2 | FC(F)c1cn2c(-c3cccc(N[C@H]4CNC[C@@H]4F)n3)cnc2cn1 [Compound 16, 6-(6-(difluoromethyl)imidazo[1,2-a]pyrazin-3-yl)-N-((3S,4S)-4-fluoropyrrolidin-3-yl)pyridin-2-amine] | 3 nM | 0.053 nM
3 | CC(C)(O)c1cn2c(-c3cccc(N[C@H]4CNCC[C@@H]4F)n3)cnc2cn1 [Compound 31, 2-(3-(6-(((3S,4S)-4-fluoropiperidin-3-yl)amino)pyridin-2-yl)imidazo[1,2-a]pyrazin-6-yl)propan-2-ol] | 10 nM | 0.18 nM
4 | F[C@H]1CNC[C@@H]1Nc1cccc(-c2cnc3cnc(C4CC4)cn23)n1 [Compound 50, 6-(6-cyclopropylimidazo[1,2-a]pyrazin-3-yl)-N-((3S,4S)-4-fluoropyrrolidin-3-yl)pyridin-2-amine] | 1.9 nM | 0.044 nM
5 | Cn1cc(-c2cn3c(-c4cccc(N[C@H]5CNC[C@@H]5F)n4)cnc3cn2)cn1 [Compound 52, N-((3S,4S)-4-fluoropyrrolidin-3-yl)-6-(6-(1-methyl-1H-pyrazol-4-yl)imidazo[1,2-a]pyrazin-3-yl)pyridin-2-amine] | 1.8 nM | 0.064 nM

Continued, values first:

Row | Kd (FLT3 Autoinh.) | Kd (FLT3 D835Y) | Compound
6 | 1 nM | 0.049 nM | CC1(c2cn3c(-c4cccc(N[C@H]5CNC[C@@H]5F)n4)cnc3cn2)CC1 [Compound 1, N-((3S,4S)-4-fluoropyrrolidin-3-yl)-6-(6-(1-methylcyclopropyl)imidazo[1,2-a]pyrazin-3-yl)pyridin-2-amine]
7 | 1.4 nM | 0.053 nM | CC1(c2cn3c(-c4cccc(N[C@@H]5CCNC5)n4)cnc3cn2)CC1 [Compound 3, (R)-6-(6-(1-methylcyclopropyl)imidazo[1,2-a]pyrazin-3-yl)-N-(pyrrolidin-3-yl)pyridin-2-amine]
8 | 4.2 nM | 0.044 nM | FC(F)(F)C1(c2cn3c(-c4cccc(N[C@@H]5CCNC5)n4)cnc3cn2)CC1 [Compound 10, (R)-N-(pyrrolidin-3-yl)-6-(6-(1-(trifluoromethyl)cyclopropyl)imidazo[1,2-a]pyrazin-3-yl)pyridin-2-amine]
9 | 3.6 nM | 0.071 nM | FC(F)c1cn2c(-c3cccc(N[C@H]4CNCC[C@@H]4F)n3)cnc2cn1 [Compound 25, 6-(6-(difluoromethyl)imidazo[1,2-a]pyrazin-3-yl)-N-((3S,4S)-4-fluoropiperidin-3-yl)pyridin-2-amine]
10 | 22 nM | 0.47 nM | CC(C)(O)c1cn2c(-c3cccc(N[C@@H]4CCCNC4)n3)cnc2cn1 [Compound 30, (R)-2-(3-(6-(piperidin-3-ylamino)pyridin-2-yl)imidazo[1,2-a]pyrazin-6-yl)propan-2-ol]
11 | 7.6 nM | 0.035 nM | FC(F)(F)COc1cn2c(-c3cccc(N[C@@H]4CCNC4)n3)cnc2cn1 [Compound 38, (R)-N-(pyrrolidin-3-yl)-6-(6-(2,2,2-trifluoroethoxy)imidazo[1,2-a]pyrazin-3-yl)pyridin-2-amine]
